Among the data in patent US7723523B2, “Tetrahydropyridothiophenes” (4SC AG, priority 2004, dated 2010) are IC50 values, retold here.

The test system of assay [1] is RKO (RKOp27) human colon adenocarcinoma cells. Put plainly: Alamar Blue cell viability assay, anti-proliferative/cytotoxic activity on proliferating RKOp27 cells. The following applies: absence of Ponasterone A, 72 hours incubation, read-out: IC50 RKO p27 proliferating. It counts as cell-based. Summed up: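 IC50 values come from concentration-effect curves of Alamar Blue fluorescence (544/590 nm), relative to untreated controls set at 100%. Cells were RKOp27, seeded at 4000/well in DMEM with 10% FCS and exposed from 24 h post-seeding for 72 h (37 °C, 5% CO2) to semi-log dilutions, each run in quadruplicate.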
In general terms: Alamar Blue is a resazurin reagent that responds to reducing activity.

For assay [2], the system named is RKO colon adenocarcinoma cells (RKOp27) arrested by expression of ectopic p27Kip1. As to the kind of experiment: Alamar Blue cell viability assay on RKOp27 cells arrested by Ponasterone A-induced p27Kip1 (cell cycle specific mode of action). It is filed as cell-based. The following applies: Homo sapiens, RKOp27, 72 h, cells arrested by p27Kip1 induced with 10 μM Ponasterone A, 72 hours incubation, read-out: IC50 RKO p27 arrested. The procedure, abridged:
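Viability measured by Alamar Blue fluorescence (ex 544, em 590 nm) after 72 h, 37 °C compound exposure in quadruplicate, normalized to untreated cells as 100%. Cells were p27Kip1-arrested RKOp27, induced with 10 μM Ponasterone A at seeding; compound added 24 h later.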

In general, IC50 refers to the concentration that inhibits the measured activity by half. Turning to `CCOC(=O)N1CCc2c(sc(NC(=O)/C=C/c3ccccc3OC(F)(F)F)c2C#N)C1` [Example 233, 3-Cyano-2-[(E)-3-(2-trifluoromethoxy-phenyl)-allanoylamino]-4,7-dihydro-5H-thieno[2,3-c]pyridine-6-carboxylic acid ethyl ester], the IC50 in assay [1] was not above 0.5 µM; in assay [2], not below 50 µM.
As for `CCOC(=O)N1CCc2c(sc(NC(=O)/C=C/c3cccc4c3OC(F)(F)O4)c2C#N)C1` [Example 230, 3-Cyano-2-[(E)-3-(2,2-difluoro-benzo[1,3]dioxol-4-yl)-allanoylamino]-4,7-dihydro-5H-thieno[2,3-c]pyridine-6-carboxylic acid ethyl ester], the figures for the IC50 in assay [1] and in assay [2] were not above 2 µM and not below 100 µM, respectively.
In the same order, the values of `CCOC(=O)N1CCc2c(sc(NC(=O)/C=C/c3ccccc3-c3ccccc3)c2C#N)C1` [Example 73, 2-((E)-3-Biphenyl-2-yl-allanoylamino)-3-cyano-4,7-dihydro-5H-thieno[2,3-c]pyridine-6-carboxylic acid ethyl ester] are not above 2 µM and not below 100 µM.
In the same order, the values of `CCOC(=O)N1CCc2c(sc(NC(=O)/C=C/c3cccc(OC)c3)c2C#N)C1` [Example 19, 3-Cyano-2-[(E)-3-(3-methoxy-phenyl)-allanoylamino]-4,7-dihydro-5H-thieno[2,3-c]pyridine-6-carboxylic acid ethyl ester] are not above 2 µM and more than 100 µM.
In the same order, the values of `CCOC(=O)N1CCc2c(sc(NC(=O)/C=C/c3sccc3C)c2C#N)C1` [Example 75, 3-Cyano-2-[(E)-3-(3-methyl-thiophen-2-yl)-allanoylamino]-4,7-dihydro-5H-thieno[2,3-c]pyridine-6-carboxylic acid ethyl ester] are not above 2 µM and not below 100 µM.
Take `N#Cc1c(NC(=O)/C=C/c2ccccc2)sc2c1CCN(C(=O)OCCN1CCCC1)C2` [Example 114]: the IC50 in assay [1] was not above 2 µM; in assay [2], not below 100 µM.
For `CCOC(=O)N1CCc2c(sc(NC(=O)/C=C/c3ccccc3Br)c2C#N)C1` [Example 66, 2-[(E)-3-(2-Bromo-phenyl)-allanoylamino]-3-cyano-4,7-dihydro-5H-thieno[2,3-c]pyridine-6-carboxylic acid ethyl ester], in that order: not above 2 µM and not below 100 µM.
In the same order, the values of `N#Cc1c(NC(=O)/C=C/c2ccccc2)sc2c1CCN(C(=O)OCCCc1cccnc1)C2` [Example 125, 3-Cyano-2-((E)-3-phenyl-allanoylamino)-4,7-dihydro-5H-thieno[2,3-c]pyridine-6-carboxylic acid 3-pyridin-3-yl-propyl ester] are not above 2 µM and not below 100 µM.
In the same order, the values of `CCOC(=O)N1CCc2c(sc(NC(=O)/C=C/c3ccc(OC)cc3F)c2C#N)C1` [Example 70, 3-Cyano-2-[(E)-3-(2-fluoro-4-methoxy-phenyl)-allanoylamino]β4,7-dihydro-5H-thieno[2,3-c]pyridine-6-carboxylic acid ethyl ester] are not above 2 µM and not below 100 µM.
In the case of `CCOc1ccccc1/C=C/C(=O)Nc1sc2c(c1C#N)CCN(C(=O)CCOC)C2` [Example 216, (E)-N-[3-Cyano-6-(3-methoxy-propanoyl)-4,5,6,7-tetrahydro-thieno[2,3-c]pyridin-2-yl]-3-(2-ethoxy-phenyl)-acrylamide], the IC50 in assay [1] is not above 2 µM; in assay [2], not below 100 µM.
In the case of `COC(=O)CCOC(=O)N1CCc2c(sc(NC(=O)/C=C/c3cccnc3)c2C#N)C1` [Example 162, 3-Cyano-2-((E)-3-pyridin-3-yl-allanoylamino)-4,7-dihydro-5H-thieno[2,3-c]pyridine-6-carboxylic acid 2-methoxycarbonyl-ethyl ester], the figures for the IC50 in assay [1] and in assay [2] were not above 2 µM and not below 100 µM, respectively.
For `CCOC(=O)N1CCc2c(sc(NC(=O)/C=C/c3ccc(CC)o3)c2C#N)C1` [Example 77, 3-Cyano-2-[(E)-3-(5-ethyl-furan-2-yl)-allanoylamino]-4,7-dihydro-5H-thieno[2,3-c]pyridine-6-carboxylic acid ethyl ester], in that order: not above 0.5 µM and not below 50 µM.
For `COCCOCC(=O)N1CCc2c(sc(NC(=O)/C=C/c3ccco3)c2C#N)C1` [Example 226, (E)-N-{3-Cyano-6-[2-(2-methoxy-ethoxy)ethanoyl]-4,5,6,7-tetrahydro-thieno[2,3-c]pyridin-2-yl}-3-furan-2-yl-acrylamide], the values for the IC50 in assay [1] and in assay [2] were not above 2 µM and not below 100 µM, respectively.
In the same order, the values of `N#Cc1c(NC(=O)/C=C/c2cccnc2)sc2c1CCN(C(=O)OCCCc1ccccc1)C2` [Example 148, 3-Cyano-2-((E)-3-pyridin-3-yl-allanoylamino)-4,7-dihydro-5H-thieno[2,3-c]pyridine-6-carboxylic acid 3-phenyl-propyl ester] are not above 2 µM and not below 100 µM.
In the same order, the values of `N#Cc1c(NC(=O)/C=C/c2cccnc2)sc2c1CCN(C(=O)Cc1cccnc1)C2` [Example 205, (E)-N-[3-Cyano-6-(2-pyridin-3-yl-ethanoyl)-4,5,6,7-tetrahydro-thieno[2,3-c]pyridin-2-yl]-3-pyridin-3-yl-acrylamide] are not above 2 µM and not below 100 µM.
Regarding `CCOC(=O)N1CCc2c(sc(NC(=O)/C=C/c3c(F)cccc3Cl)c2C#N)C1` [Example 67, 2-[(E)-3-(2-Chloro-6-fluoro-phenyl)-allanoylamino]-cyano-4,7-dihydro-5H-thieno[2,3-c]pyridine-6-carboxylic acid ethyl ester], the results for the IC50 in assay [1] and in assay [2] were not above 2 µM and not below 100 µM, respectively.
As to `CCCC(=O)N1CCc2c(sc(NC(=O)/C=C/c3ccccc3)c2C#N)C1` [Example 33, (E)-N-(6-Butyryl-3-cyano-4,5,6,7-tetrahydro-thieno[2,3-c]pyridin-2-yl)-3-phenyl-acrylamide], the IC50 in assay [1] is not above 2 µM; in assay [2] it was more than 100 µM.
For `CCOc1ccccc1/C=C/C(=O)Nc1sc2c(c1C#N)CCN(C(=O)CCc1cccnc1)C2` [Example 220, (E)-N-[3-Cyano-6-(3-pyridin-3-yl-propanoyl)-4,5,6,7-tetrahydro-thieno[2,3-c]pyridin-2-yl]-3-(2-ethoxy-phenyl)-acrylamide], in that order: not above 0.5 µM and not below 50 µM.
For the compound `CC1(C)OCC(COC(=O)N2CCc3c(sc(NC(=O)/C=C/c4cccnc4)c3C#N)C2)O1` (stereo not drawn) [Example 164, 3-Cyano-2-((E)-3-pyridin-3-yl-allanoylamino)-4,7-dihydro-5H-thieno[2,3-c]pyridine-6-carboxylic acid 2,2-dimethyl-[1,3]dioxolan-4-ylmethyl ester], the results for the IC50 in assay [1] and in assay [2] were not above 2 µM and not below 100 µM, respectively.
In the same order, the values of `N#Cc1c(NC(=O)/C=C/c2ccco2)sc2c1CCN(C(=O)OCCc1ccccn1)C2` [Example 243, 3-Cyano-2-((E)-3-furan-2-yl-allanoylamino)-4,7-dihydro-5H-thieno[2,3-c]pyridine-6-carboxylic acid 2-pyridin-2-yl-ethyl ester] are not above 2 µM and not below 100 µM.
For `CCOc1ccccc1/C=C/C(=O)Nc1sc2c(c1C#N)CCN(C(=O)Cc1ccccn1)C2` [Example 218, (E)-N-[3-Cyano-6-(2-pyridin-2-yl-ethanoyl)-4,5,6,7-tetrahydro-thieno[2,3-c]pyridin-2-yl]-3-(2-ethoxy-phenyl)-acrylamide], the IC50 in assay [1] is not above 2 µM; in assay [2], not below 100 µM.
As for `CCOC(=O)N1CCc2c(sc(NC(=O)/C=C/c3csc4ccccc34)c2C#N)C1` [Example 71, 2-((E)-3-Benzo[b]thiophen-3-yl-allanoylamino)-3-cyano-[4,7-d]hydro-5H-thieno[2,3-c]pyridine-6-carboxylic acid ethyl ester], the IC50 is not above 2 µM in assay [1] and not below 100 µM in assay [2].
In the same order, the values of `CCOC(=O)N1CCc2c(sc(NC(=O)/C=C/c3ccsc3)c2C#N)C1` [Example 9, 3-Cyano-2-((E)-3-thiophen-3-yl-allanoylamino)-4,7-dihydro-5H-thieno[2,3-c]pyridine-6-carboxylic acid ethyl ester] are not above 2 µM and more than 100 µM.
Turning to `COc1ccc(CCOC(=O)N2CCc3c(sc(NC(=O)/C=C/c4cccnc4)c3C#N)C2)cc1` [Example 146, 3-Cyano-2-((E)-3-pyridin-3-yl-allanoylamino)-4,7-dihydro-5H-thieno[2,3-c]pyridine-6-carboxylic acid 2-(4-methoxy-phenyl)-ethyl ester], the IC50 is not above 2 µM in assay [1] and not below 100 µM in assay [2].
Regarding `COCCOCCOC(=O)N1CCc2c(sc(NC(=O)/C=C/c3ccccc3)c2C#N)C1` [Example 129, 3-Cyano-2-((E)-3-phenyl-allanoylamino)-4,7-dihydro-5H-thieno[2,3-c]pyridine-6-carboxylic acid 2-(2-methoxy-ethoxy)-ethyl ester], the IC50 in assay [1] was not above 2 µM; in assay [2], not below 100 µM.
Regarding `COCCC(=O)N1CCc2c(sc(NC(=O)/C=C/c3cccnc3)c2C#N)C1` [Example 195, (E)-N-[3-Cyano-6-(3-methoxy-propanoyl)-4,5,6,7-tetrahydro-thieno[2,3-c]pyridin-2-yl]-3-pyridin-3-yl-acrylamide], the IC50 in assay [1] is not above 2 µM; in assay [2], not below 100 µM.
In the same order, the values of `COc1ccccc1/C=C/C(=O)Nc1sc2c(c1C#N)CCN(C(=O)OCCc1ccccn1)C2` [Example 139, 3-Cyano-2-[(E)-3-(2-methoxy-phenyl)-allanoylamino]-4,7-dihydro-5H-thieno[2,3-c]pyridine-6-carboxylic acid 2-pyridin-2-yl-ethyl ester] are not above 2 µM and not below 100 µM.
